Counter-ions that a name gives are not always drawn.

A short description of data set [1]: vapor pressure of fragrance components.
A short description of data set [2]: FRAGRANCE PERMEATION TEST (diffusion cell, weight loss). The settings on record: for permeation rate through hydroxypropyl cellulose / permeation rate through polyvinyl alcohol: 35° C., film thickness about 150 microns; for permeation rate through polyvinyl alcohol: FIG. 5C (98% hydrolyzed polyvinyl acetate). It is filed as physicochemical. From the text: Referring to FIGS. 4A and 4B, fluid 46 is located in jar 44. Jar 44 has sidearm 45. The fluid 46 reaches fluid level 47. Directly in line with fluid level 47 is membrane 41. The diffusion membrane 41 is held in place with flanges 43 and jar lip 42, using bolts 401a and 401b which secures the flange in place. The sidearm 45 is closed using closure 49. The permeability apparatus is shown using reference numeral 40. The FRAGRANCE PERMEABILITY TEST is based on the use of the apparatus of FIGS. 4A and 4B. The weight of membrane 41 is taken, initially, before being placed within the flange 43 and the jar lip 42. Substance 46 for which the permeability is to be measured is placed into jar 44 to fluid level 47. The apparatus containing fluid 46 remains in place for a fixed period of time. At the end of that period of time, bolts 401a and 401b as well as 401c are loosened, the flange 43 removed and membrane 41 is removed and weighed, thereby gathering sufficient data to determine the permeability of the particular substance 46. The design and development of fragrance controlled release systems is built upon an understanding of the transport mechanisms of aroma chemicals and fragrances through polymers. The ability of the film forming polymers to sustain fragrance release was determined by permeation studies. A special diffusion cell has been developed to measure the steady state permeation of aroma chemicals and fragrances through polymeric films using weight loss. […] The polymeric film is mounted on the diffusion cell and is tightly secured by a glass ring fitted with three screws. […] The diffusant (fragrances, single or mixture of aroma chemicals) is kept in contact with the polymer film throughout the experiment period by filling the diffusion cell arm with the diffusant. The permeation rate of the diffusant is determined by monitoring the changes in the diffusion cell weight. The permeability coefficient, or permeability P, is useful in describing the rate of mass transport through a polymer at steady state. Permeability is related to two basic properties: diffusion and solubility. The permeability coefficient can be expressed by the diffusion coefficient (D) and the solubility coefficient (S). Their relationship is described by the following equation: This value is the actual weight loss that is being measured during our experiments. […] P=DS and the use of neat material (not dilution in a solvent), one can then solve the equation to determine the permeability coefficient using the cell dimension (surface area, A), the thickness of the film (L) and the weight loss data (Q=dM/dt): [formula] The effect of fragrance physical and chemical properties on its permeation rate through the film forming polymers was studied using the experimental setup described, supra. FIG. 5B, described in detail, supra, presents the effect of log10P on the permeation rate of the two model aroma chemicals through hydroxypropyl cellulose. The permeation studies were carried out at 35° C., and the temperature was kept constant within ±0.5 C. throughout the experiment period. […] The aroma chemicals studied, ethyl […] β-pinene, have approximately the same values of vapor pressure, but differ in their solubility in water. Ethyl […] lower value of log10P and thus is more water soluble than β-pinene. The permeation rates on two model aroma chemicals having a high and low log10P through a polyvinyl alcohol, having crystalline and better packed structure, were also studied and are illustrated in FIG. 5C, described in detail, supra. The permeation studies were carried out at 35° C., and the temperature was kept constant within +0.5° C. throughout the experiment period. […] The aroma chemicals studied, ethyl […] β-pinene, have about the same values of vapor pressure, but differ in their solubility in water. Ethyl […] lower value of log10P and thus is more water soluble than β-pinene.

The nature of data set [3]: evaporation rate of aroma chemical without the polymer. The following applies: 35° C. It is filed as physicochemical. The procedure:
The effect of fragrance physical and chemical properties on its permeation rate through the film forming polymers was studied using the experimental setup described, supra. FIG. 5B, described in detail, supra, presents the effect of log10P on the permeation rate of the two model aroma chemicals through hydroxypropyl cellulose. The permeation studies were carried out at 35° C., and the temperature was kept constant within ±0.5 C. throughout the experiment period. The thickness of the films studied was about 150 microns. The aroma chemicals studied, ethyl […] β-pinene, have approximately the same values of vapor pressure, but differ in their solubility in water. Ethyl […] lower value of log10P and thus is more water soluble than β-pinene. The permeation rates on two model aroma chemicals having a high and low log10P through a polyvinyl alcohol, having crystalline and better packed structure, were also studied and are illustrated in FIG. 5C, described in detail, supra. The permeation studies were carried out at 35° C., and the temperature was kept constant within +0.5° C. throughout the experiment period. The thickness of the films studied was about 150 microns. The aroma chemicals studied, ethyl […] β-pinene, have about the same values of vapor pressure, but differ in their solubility in water. Ethyl […] lower value of log10P and thus is more water soluble than β-pinene.

Setting [4] is: polymer film material: carboxymethyl cellulose.
The mark [5] stands for this setting: polymer film material: polyvinyl alcohol (74% hydrolyzed).
Setting [6] is: polymer film material: polyvinyl alcohol (98% hydrolyzed).

For peach aldehyde coeur, the “Vapor Pressure” value in data set [1] (at 25° C.) was 0.002 mm/Hg.

On to `CC(OC=O)C1CCCC(C)(C)C1` (stereo not drawn) [C.P. FORMATE®, the formic acid ester of 1,1-dimethyl-3(1-hydroxyethyl)cyclohexane, reference compound], for which the Permeation in data set [2] (polymer film material: hydroxypropyl cellulose (molecular weight = 100,000)) is 2.5 × 10^−4 mg-mm thickness/cm^2 area - mi. In data set [1] (figure legends, unit inferred), the Vapor Pressure turned out to be 0.1 mmHg.

On to `C=CC(C)(O)CCC=C(C)C` (stereo not drawn) [linalool], for which, in data set [1] (at 25° C.), the “Vapor Pressure” value worked out at 0.05 mm/Hg.

Consider `CC1(C)C2CCC1(C)C(O)C2` (stereo not drawn) [Example 1-borneol, 1-borneol], for which the “Vapor Pressure” value in data set [1] (at 25° C.) came to 0.02 mm/Hg.

Take `CC12CCC(CC1=O)C2(C)C` (stereo not drawn) [camphor]: the “Vapor Pressure” value in data set [1] (at 25° C.) is 0.1 mm/Hg.

On to `CC(=O)C1(C)CC2=C(CCCC2(C)C)CC1C` (stereo not drawn) [ISO E SUPER ®], for which, in data set [1] (at 25° C.), the “Vapor Pressure” value stood at 0.002 mm/Hg.

For `C/C=C(\C)C(=O)OCC` [ethyl tiglate], the “permeation rate through hydroxypropyl cellulose” value in data set [2] is recorded as “exactly the same as its evaporation rate without the polymer”; in data set [2] (listed as Ethyl tiglate), “equal to its evaporation rate”. The “permeation rate through polyvinyl alcohol” value in data set [2] is “about 1.8×10^−4”. Moreover, the values for the Permeation in data set [2] (setting [4]), in data set [2] (setting [5]) and in data set [2] (setting [6]) were 2.8 × 10^−3 mg-mm thickness/cm^2 area - mi, 5 × 10^−3 mg-mm thickness/cm^2 area - mi and 2 × 10^−3 mg-mm thickness/cm^2 area - mi, respectively. In data set [2] (through positively charged polymers POLYMER LK and POLYMER LR-400 (FIG. 5I)), the overall permeation rate is 5.8×10^−4. In data set [1] (figure legends, unit inferred), the Vapor Pressure came to 1.8 mmHg.

On to `CC(C)=CCCC(C)CCO` (stereo not drawn) [citronellol], for which, in data set [1] (at 25° C.), the “Vapor Pressure” value came to 0.009 mm/Hg.

Regarding `CCCCCCC(C=O)=Cc1ccccc1` [hexyl cinnamic aldehyde], the “Vapor Pressure” value in data set [1] (at 25° C.) was found to be 0.0003 mm/Hg.

For `OCCc1ccccc1` [β-phenyl ethyl alcohol], the “Vapor Pressure” value in data set [1] (at 25° C.) was 0.02 mm/Hg.

Take `CC(=O)/C=C/C1=C(C)CCCC1(C)C` [β-ionone]: the “Vapor Pressure” value in data set [1] (at 25° C.) turned out to be 0.006 mm/Hg.

`CC/C=C\CCOC(=O)c1ccccc1O` [cis-3-hexenyl salicylate]: the “Vapor Pressure” value in data set [1] (at 25° C.) is 0.0008 mm/Hg.

Regarding `CC(C=O)Cc1ccc(C(C)C)cc1` (stereo not drawn) [cyclamal], the “Vapor Pressure” value in data set [1] (at 25° C.) is 0.004 mm/Hg.

For `C=C1CCC2CC1C2(C)C` (stereo not drawn) [β-pinene], in data set [2], the “permeation rate through hydroxypropyl cellulose” value was 2.7×10^−4. Further, the “permeation rate through polyvinyl alcohol” value in data set [2] is listed as “about 1.8×10^−4”. In addition, the Permeation in data set [2] (setting [4]) is 2.8 × 10^−3 mg-mm thickness/cm^2 area - mi; in data set [2] (setting [5]), 2.5 × 10^−3 mg-mm thickness/cm^2 area - mi; in data set [2] (setting [6]) it was 2 × 10^−3 mg-mm thickness/cm^2 area - mi. Moreover, the permeation rate is 3.9×10^−5 in data set [2] (through POLYMER LK (FIG. 5K, graph 596)) and 7.5×10^−5 in data set [2] (through POLYMER LR-400 (FIG. 5K, graph 595)). Besides, in data set [3], the “evaporation rate without the polymer” value is given as “about 0.15”. In data set [1] (figure legends, unit inferred), this molecule came in with a Vapor Pressure of 2.2 mmHg.

For the molecule `CC(=O)OC(C)c1ccccc1` (stereo not drawn) [styralyl acetate], the “Vapor Pressure” value in data set [1] (at 25° C.) amounted to 0.1 mm/Hg.

Take `CC1=CCC(C(C)(C)O)CC1` (stereo not drawn) [α-terpineol]: in data set [1] (at 25° C.), the “Vapor Pressure” value was determined as 0.02 mm/Hg.

Turning to `CCCCCCCCCC(C)C=O` (stereo not drawn) [methyl nonyl acetaldehyde], in data set [1] (at 25° C.), the “Vapor Pressure” value is recorded as 0.009 mm/Hg.

On to `CCCCCCCC=O` [n-octanal], for which, in data set [2] (not told), the Permeation is reported as 2.8 × 10^−3 mg-mm thickness/cm^2 area - mi.

With `C=CC(C)(CCC=C(C)C)OC(C)=O` (stereo not drawn) [linalyl acetate], the “Vapor Pressure” value in data set [1] (at 25° C.) was 0.07 mm/Hg.

Regarding `CC(=O)c1cc2c(cc1C)C(C)(C)C(C)CC2(C)C` (stereo not drawn) [TONALID ®], the “Vapor Pressure” value in data set [1] (at 25° C.) is 0.0001 mm/Hg.

For the molecule `CC1=CC(C)C(C=O)CC1` (stereo not drawn), in data set [1] (at 25° C.), the “Vapor Pressure” value is given as 0.3 mm/Hg.

Take `CC/C=C\CCOC(C)=O` [cis-3-hexenyl acetate]: the “Vapor Pressure” value in data set [1] (at 25° C.) was 2.0 mm/Hg.

As to `CC(=O)OC1CCC(C(C)(C)C)CC1` (stereo not drawn) [VERTENEX ® HC], the “Vapor Pressure” value in data set [1] (at 25° C.) is given as 0.03 mm/Hg.

In the case of `CC(C=O)Cc1ccc(C(C)(C)C)cc1` (stereo not drawn) [LILIAL ®], the “Vapor Pressure” value in data set [1] (at 25° C.) stood at 0.003 mm/Hg.

As to `CC(=O)O[C@@H]1C[C@H]2CC[C@]1(C)C2(C)C` (racemic) [isobornyl acetate], the “Vapor Pressure” value in data set [1] (at 25° C.) was determined as 0.09 mm/Hg.

As to `CC(=O)OCc1ccccc1` [benzyl acetate], the “Vapor Pressure” value in data set [1] (at 25° C.) came to 0.1 mm/Hg.

As to `C=CCOC(=O)COCCC(C)C` [allyl amyl glycolate], the “Vapor Pressure” value in data set [1] (at 25° C.) is 0.07 mm/Hg.

Take `C=CC(C)CCCC(C)(C)O` (stereo not drawn) [dihydromyrcenol]: the “Vapor Pressure” value in data set [1] (at 25° C.) came to 0.09 mm/Hg.

For the molecule `C=CCc1ccc(OC)cc1` [methyl chavicol], in data set [1] (at 25° C.), the “Vapor Pressure” value is reported as 0.09 mm/Hg.

Values taken from patent US6703011B2, “Application of film forming technology to fragrance control release systems; and resultant fragrance control release systems” (International Flavors & Fragrances Inc., priority 1998, dated 2004).
